Test results published in patent US20260022143A1, “Cyclic Peptide Inhibitors of IL-23” (JANSSEN PHARMACEUTICA NV, priority 2022, published 2026).
Counter-ions that a name gives are not always drawn. Starred links: 1 amine or outer side, 2 acyl side, 3 side chain; linkers in the order of their positions; H or OH if unused. Positions of bridges follow the written chain, without caps; N, C: chain ends. Non-standard residues stand in square brackets, D forms with d. Residues, ends and D or L forms follow the SMILES beside them. *: point of attachment. X68 = COCCOCCOCCOCCOCCOCCC(=O)N(CCCC[C@@H](N[*:1])C(=O)[*:2])C(C)=O; Trp(7-Me) = Cc1cccc2c(C[C@H](N)C(=O)O)c[nH]c12; Hexanoyl(6-NMe3+) = C[N+](C)(C)CCCCCC(=O)*; X23 = Cn1nnc(CC[C@H](N[*:1])C(=O)[*:2])n1; Dab(NMeAc) = CC(=O)N(C)CC[C@H](N)C(=O)O; Pro(4,4-F2) = O=C(O)[C@@H]1CC(F)(F)CN1; X29 = O=C([C@H](CCn1ncnn1)N[*:1])[*:2]; 2Nal = N[C@@H](Cc1ccc2ccccc2c1)C(=O)O; AEF = NCCOc1ccc(C[C@H](N)C(=O)O)cc1; 3Pal = N[C@@H](Cc1cccnc1)C(=O)O; Lys(Me) = CNCCCC[C@H](N)C(=O)O; Pen = CC(C)(S)[C@H](N)C(=O)O; Thp = NC1(C(=O)O)CCOCC1; Me2NCH2CH2 = CN(C)CC*; Tfa = O=C(C(F)(F)F)*; Sar = CNCC(=O)O

Assay: Exposed Polar Surface Area (EPSA)
Type: physicochemical
Conditions: SFC on Chirex 3014 column; sample 1 mM DMSO stock; read-out: EPSA
How it was run: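 Retention-based polarity: supercritical CO2 with 20 mM ammonium formate in MeOH (5–60%, 20%/min), Chirex 3014 column, 35 °C. Calibrated against 8 standards to give EPSA (Å^2); each sample measured twice.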

Compound	EPSA [A^2]
COCCOCCOCCOCCOCCOCCNCCOc1ccc(C[C@H](NC(=O)[C@H]2NC(=O)[C@H](CCCCNC(C)=O)NC(=O)[C@H](Cc3c[nH]c4c(C)cccc34)NC(=O)[C@H]([C@@H](C)O)NC(=O)[C@H](CC(N)=O)NC(=O)[C@@H](NC(C)=O)C(C)(C)SSC2(C)C)C(=O)N[C@@H](Cc2ccc3ccccc3c2)C(=O)NC2(C(=O)N[C@@H](CCCCNC(C)=O)C(=O)N[C@@H](CC(N)=O)C(=O)N[C@@H](Cc3cccnc3)C(=O)N(C)CC(N)=O)CCOCC2)cc1 [compound 65]	154
CC(=O)N(C)CCCC[C@@H]1NC(=O)[C@H](Cc2c[nH]c3c(C)cccc23)NC(=O)[C@H]([C@@H](C)O)NC(=O)[C@H](CC(=O)N(C)C)NC(=O)[C@@H](NC(=O)C(F)(F)F)C(C)(C)SSC(C)(C)[C@@H](C(=O)N[C@@H](Cc2ccc(OCCN(C)C)cc2)C(=O)N[C@@H](Cc2ccc3ccccc3c2)C(=O)NC2(C(=O)N[C@@H](CCCCN(C)C(C)=O)C(=O)N[C@@H](CC(N)=O)C(=O)N[C@@H](Cc3cccnc3)C(=O)N(C)CC(=O)N(C)C)CCOCC2)NC1=O [compound 66, CF3CO-Pen(3)-N(N(Me)2)-T-7MeW-K(NMeAc)-Pen(3)-AEF(N(Me)2)-2Nal-THP-K(NMeAc)-N-3Pya-Sar-CON(Me)2] (Tfa-[Pen]D(NMe2)T[Trp(7-Me)][Lys(Me)](Ac)[Pen]Y(Me2NCH2CH2)[2Nal][Thp][Lys(Me)](Ac)N[3Pal][Sar]-NMe2; disulfide 1-6 (inferred))	138
CC(=O)N(C)CCCC[C@@H]1NC(=O)[C@H](Cc2c[nH]c3c(C)cccc23)NC(=O)[C@H]([C@@H](C)O)NC(=O)[C@H](CC(N)=O)NC(=O)[C@@H](NC(=O)C(F)(F)F)C(C)(C)SSC(C)(C)[C@@H](C(=O)N[C@@H](Cc2ccc(OCCN)cc2)C(=O)N[C@@H](Cc2ccc3ccccc3c2)C(=O)NC2(C(=O)N[C@@H](CCCCN(C)C(C)=O)C(=O)N[C@@H](CC(N)=O)C(=O)N[C@@H](Cc3cccnc3)C(=O)N(C)CC(N)=O)CCOCC2)NC1=O [compound 69] (Tfa-[Pen]NT[Trp(7-Me)][Lys(Me)](Ac)[Pen][AEF][2Nal][Thp][Lys(Me)](Ac)N[3Pal][Sar]-NH2; disulfide 1-6)	161
CC(=O)NCCCC[C@H](NC(=O)C1(NC(=O)[C@H](Cc2ccc3ccccc3c2)NC(=O)[C@H](Cc2ccc(OCCN)cc2)NC(=O)[C@H]2NC(=O)[C@H](CCN(C)C(C)=O)NC(=O)[C@H](Cc3c[nH]c4c(C)cccc34)NC(=O)[C@H]([C@@H](C)O)NC(=O)[C@H](CC(N)=O)NC(=O)[C@@H](NC(=O)C(F)(F)F)C(C)(C)SSC2(C)C)CCOCC1)C(=O)N[C@@H](CC(N)=O)C(=O)N[C@@H](Cc1cccnc1)C(=O)N(C)CC(N)=O [compound 70] (Tfa-[Pen]NT[Trp(7-Me)][Dab(NMeAc)][Pen][AEF][2Nal][Thp]K(Ac)N[3Pal][Sar]-NH2; disulfide 1-6)	157
CC(=O)NCCCC[C@@H]1NC(=O)[C@H](Cc2c[nH]c3c(C)cccc23)NC(=O)[C@H]([C@@H](C)O)NC(=O)[C@H](CC(N)=O)NC(=O)[C@@H](NC(=O)C(F)(F)F)C(C)(C)SSC(C)(C)[C@@H](C(=O)N[C@@H](Cc2ccc(OCCN)cc2)C(=O)N[C@@H](Cc2ccc3ccccc3c2)C(=O)NC2(C(=O)N[C@@H](CCC(=O)N(C)C)C(=O)N[C@@H](CC(N)=O)C(=O)N[C@@H](Cc3cccnc3)C(=O)N(C)CC(N)=O)CCOCC2)NC1=O [compound 72] (Tfa-[Pen]NT[Trp(7-Me)]K(Ac)[Pen][AEF][2Nal][Thp]E(NMe2)N[3Pal][Sar]-NH2; disulfide 1-6 (inferred))	160
CC(=O)NCCCC[C@@H]1NC(=O)[C@H](Cc2c[nH]c3c(C)cccc23)NC(=O)[C@H]([C@@H](C)O)NC(=O)[C@H](CC(N)=O)NC(=O)[C@@H](NC(=O)C(F)(F)F)C(C)(C)SSC(C)(C)[C@@H](C(=O)N[C@@H](Cc2ccc(OCCN)cc2)C(=O)N[C@@H](Cc2ccc3ccccc3c2)C(=O)NC2(C(=O)N[C@@H](CCCCNC(C)=O)C(=O)N[C@@H](CC(N)=O)C(=O)N[C@@H](Cc3cccnc3)C(=O)N3CC(F)(F)C[C@H]3C(=O)N(C)C)CCOCC2)NC1=O [compound 73] (Tfa-[Pen]NT[Trp(7-Me)]K(Ac)[Pen][AEF][2Nal][Thp]K(Ac)N[3Pal][Pro(4,4-F2)]-NMe2; disulfide 1-6 (inferred))	155
CC(=O)NCCCC[C@@H]1NC(=O)[C@H](Cc2c[nH]c3c(C)cccc23)NC(=O)[C@H]([C@@H](C)O)NC(=O)[C@H](CC(N)=O)NC(=O)[C@@H](NC(=O)C(F)(F)F)C(C)(C)SSC(C)(C)[C@@H](C(=O)N[C@@H](Cc2ccc(OCCN)cc2)C(=O)N[C@@H](Cc2ccc3ccccc3c2)C(=O)NC2(C(=O)N[C@@H](CCCCNC(C)=O)C(=O)N[C@@H](CC(N)=O)C(=O)N[C@@H](Cc3cccnc3)C(=O)N(C)CC(=O)N(C)C)CCOCC2)NC1=O [compound 74] (Tfa-[Pen]NT[Trp(7-Me)]K(Ac)[Pen][AEF][2Nal][Thp]K(Ac)N[3Pal][Sar]-NMe2; disulfide 1-6 (inferred))	154
CC(=O)N(C)CC[C@@H]1NC(=O)[C@H](Cc2c[nH]c3c(C)cccc23)NC(=O)[C@H]([C@@H](C)O)NC(=O)[C@H](CC(N)=O)NC(=O)[C@@H](NC(=O)C(F)(F)F)C(C)(C)SSC(C)(C)[C@@H](C(=O)N[C@@H](Cc2ccc(OCCN)cc2)C(=O)N[C@@H](Cc2ccc3ccccc3c2)C(=O)NC2(C(=O)N[C@@H](CCC(=O)N(C)C)C(=O)N[C@@H](CC(N)=O)C(=O)N[C@@H](Cc3cccnc3)C(=O)N(C)CC(N)=O)CCOCC2)NC1=O [compound 75] (Tfa-[Pen]NT[Trp(7-Me)][Dab(NMeAc)][Pen][AEF][2Nal][Thp]E(NMe2)N[3Pal][Sar]-NH2; disulfide 1-6)	157
CC(=O)NCCCC[C@@H]1NC(=O)[C@H](Cc2c[nH]c3c(C)cccc23)NC(=O)[C@H]([C@@H](C)O)NC(=O)[C@H](CC(N)=O)NC(=O)[C@@H](NC(=O)C(F)(F)F)C(C)(C)SSC(C)(C)[C@@H](C(=O)N[C@@H](Cc2ccc(OCCN)cc2)C(=O)N[C@@H](Cc2ccc3ccccc3c2)C(=O)NC2(C(=O)N[C@@H](CCc3nnn(C)n3)C(=O)N[C@@H](CC(N)=O)C(=O)N[C@@H](Cc3cccnc3)C(=O)N(C)CC(N)=O)CCOCC2)NC1=O [compound 76] (Tfa-[Pen]NT[Trp(7-Me)]K(Ac)[Pen][AEF][2Nal][Thp][X23]N[3Pal][Sar]-NH2; disulfide 1-6)	161
CC(=O)NCCCC[C@@H]1NC(=O)[C@H](Cc2c[nH]c3c(C)cccc23)NC(=O)[C@H]([C@@H](C)O)NC(=O)[C@H](CC(N)=O)NC(=O)[C@@H](NC(=O)C(F)(F)F)C(C)(C)SSC(C)(C)[C@@H](C(=O)N[C@@H](Cc2ccc(OCCN)cc2)C(=O)N[C@@H](Cc2ccc3ccccc3c2)C(=O)NC2(C(=O)N[C@@H](CCn3ncnn3)C(=O)N[C@@H](CC(N)=O)C(=O)N[C@@H](Cc3cccnc3)C(=O)N(C)CC(N)=O)CCOCC2)NC1=O [compound 77] (Tfa-[Pen]NT[Trp(7-Me)]K(Ac)[Pen][AEF][2Nal][Thp][X29]N[3Pal][Sar]-NH2; disulfide 1-6)	161
COCCOCCOCCOCCOCCOCCC(=O)N(CCCC[C@H]1NC(=O)[C@H](Cc2c[nH]c3c(C)cccc23)NC(=O)[C@H]([C@@H](C)O)NC(=O)[C@H](CC(N)=O)NC(=O)[C@@H](NC(C)=O)C(C)(C)SSC(C)(C)[C@@H](C(=O)N[C@@H](Cc2ccc(OCCN)cc2)C(=O)N[C@@H](Cc2ccc3ccccc3c2)C(=O)NC2(C(=O)N[C@@H](CCCCNC(C)=O)C(=O)N[C@@H](CC(N)=O)C(=O)N[C@@H](Cc3cccnc3)C(=O)N(C)CC(N)=O)CCOCC2)NC1=O)C(C)=O [compound 78] (Ac-[Pen]NT[Trp(7-Me)][X68][Pen][AEF][2Nal][Thp]K(Ac)N[3Pal][Sar]-NH2; disulfide 1-6)	157
CC(=O)N(C)CCCC[C@@H]1NC(=O)[C@H](Cc2c[nH]c3c(C)cccc23)NC(=O)[C@H]([C@@H](C)O)NC(=O)[C@H](CC(=O)N(C)C)NC(=O)[C@@H](NC(=O)C(F)(F)F)C(C)(C)SSC(C)(C)[C@@H](C(=O)N[C@@H](Cc2ccc(OCCN(C)C)cc2)C(=O)N[C@@H](Cc2ccc3ccccc3c2)C(=O)NC2(C(=O)N[C@@H](CCC(=O)N(C)C)C(=O)N[C@@H](CC(N)=O)C(=O)N[C@@H](Cc3cccnc3)C(=O)N(C)CC(N)=O)CCOCC2)NC1=O [compound 79, CF3CO-Pen(3)-N(N(Me)2)-T-7MeW-K(NMeAc)-Pen(3)-AEF(N(Me)2)-2Nal-THP-Q(N(Me)2)-N-3Pya-Sar-CONH2] (Tfa-[Pen]D(NMe2)T[Trp(7-Me)][Lys(Me)](Ac)[Pen]Y(Me2NCH2CH2)[2Nal][Thp]E(NMe2)N[3Pal][Sar]-NH2; disulfide 1-6 (inferred))	144
CC(=O)NCCCC[C@@H]1NC(=O)[C@H](Cc2c[nH]c3c(C)cccc23)NC(=O)[C@H]([C@@H](C)O)NC(=O)[C@H](CC(N)=O)NC(=O)[C@@H](NC(=O)CCCCC[N+](C)(C)C)C(C)(C)SSC(C)(C)[C@@H](C(=O)N[C@@H](Cc2ccc(OCCN)cc2)C(=O)N[C@@H](Cc2ccc3ccccc3c2)C(=O)NC2(C(=O)N[C@@H](CCC(=O)O)C(=O)N[C@@H](CC(N)=O)C(=O)N[C@@H](Cc3cccnc3)C(=O)N(C)CC(N)=O)CCOCC2)NC1=O [compound 81] ({Hexanoyl(6-NMe3+)}-[Pen]NT[Trp(7-Me)]K(Ac)[Pen][AEF][2Nal][Thp]EN[3Pal][Sar]-NH2; disulfide 1-6 (inferred))	173
CC(=O)NCCCC[C@@H]1NC(=O)[C@H](Cc2c[nH]c3c(C)cccc23)NC(=O)[C@H]([C@@H](C)O)NC(=O)[C@H](CC(N)=O)NC(=O)[C@@H](NC(=O)[C@@H](CCCCNC(=O)CCCCC[N+](C)(C)C)NC(C)=O)C(C)(C)SSC(C)(C)[C@@H](C(=O)N[C@@H](Cc2ccc(OCCN)cc2)C(=O)N[C@@H](Cc2ccc3ccccc3c2)C(=O)NC2(C(=O)N[C@@H](CCC(=O)O)C(=O)N[C@@H](CC(N)=O)C(=O)N[C@@H](Cc3cccnc3)C(=O)N(C)CC(N)=O)CCOCC2)NC1=O [compound 83] (Ac-[dK](Hexanoyl(6-NMe3+))[Pen]NT[Trp(7-Me)]K(Ac)[Pen][AEF][2Nal][Thp]EN[3Pal][Sar]-NH2; disulfide 2-7 (inferred))	167
